3 molecules from PMC2850129, “Changes in Activity and Kinetic Properties of the Proteasome in Different Rat Organs during Development and Maturation” (Current Gerontology and Geriatrics Research, 2010) can be followed below.

This assay deals with T1, proteasome (Rattus norvegicus, UniProt P28073+P28075+Q9JHW0).
T1 construct: gene Psmb5; native, not purified; soluble fraction (100,000 g supernatant) of liver, brain or lens homogenate; 20S/26S and immunoproteasome content not resolved; with Proteasome subunit beta type-1; Proteasome subunit beta type-2; Proteasome subunit beta type-3; Proteasome subunit beta type-4; Proteasome subunit alpha type-1; Proteasome subunit alpha type-2; Proteasome subunit alpha type-3; Proteasome subunit alpha type-4; Proteasome subunit alpha type-5; Proteasome subunit alpha type-6; Proteasome subunit alpha type-7
Kind of assay: fluorogenic AMC release, Lineweaver-Burk plot. The class given is biochemical. To be noted: liver soluble fraction, Tris pH 7.5, EDTA, 2 mM DTT, 37°C, per-animal values versus age, brain and lens in Figures 2 and 3.

Starred links: 1 amine or outer side, 2 acyl side, 3 side chain; linkers in the order of their positions; H or OH if unused. Residues, ends and D or L forms follow the SMILES beside them. *: point of attachment. AMC = Cc1cc(=O)oc2cc(N*)ccc12; Suc = O=C(CCC(=O)[*:2])[*:1]; Cbz = O=C(OCc1ccccc1)*; Boc = CC(C)(C)OC(=O)*

In the case of `Cc1cc(=O)oc2cc(NC(=O)[C@H](CCC(=O)O)NC(=O)[C@H](CC(C)C)NC(=O)[C@H](CC(C)C)NC(=O)OCc3ccccc3)ccc12` [LLE, Z-Leu-Leu-Glu-AMC] (Cbz-Leu-Leu-Glu-{AMC}), under “peptidylglutamyl peptidase site (beta1)”, the K m entry is “Michaelis-Menten constants (K m) of the proteasome in rat liver versus age”.
For the molecule `Cc1cc(=O)oc2cc(NC(=O)[C@H](Cc3ccc(O)cc3)NC(=O)[C@@H](NC(=O)[C@H](CC(C)C)NC(=O)[C@H](CC(C)C)NC(=O)CCC(=O)O)C(C)C)ccc12` [LLVY, Suc-Leu-Leu-Val-Tyr-AMC] (Suc-LLVY-{AMC}), where the note is “chymotrypsin-like site (beta5)”, the K m result is recorded as “Michaelis-Menten constants (K m) of the proteasome in rat liver versus age”.
As to `Cc1cc(=O)oc2cc(NC(=O)[C@H](CCCNC(=N)N)NC(=O)CNC(=O)[C@@H](NC(=O)OC(C)(C)C)C(C)C)ccc12` [VGR, Boc-Val-Gly-Arg-AMC] (Boc-Val-Gly-Arg-{AMC}), the K m result (trypsin-like site (beta2)) was “Michaelis-Menten constants (K m) of the proteasome in rat liver versus age”.
